Results from US20110154724A1, “FATTY ESTER COMPOSITIONS WITH IMPROVED OXIDATIVE STABILITY” (TAMINCO, priority 2008, published 2011).

Experiments:
[1] = Solubility tests of antioxidant package components in alkanolamine / hydroxylamine; assay type: physicochemical
Protocol: Additionally, 2 grams of octyldiethanolamine (ODEA) was added to the additive mixture.

[2] = Rancimat oxidative stability (EN 14112) of biodiesel with additives; assay type: physicochemical; settings: for Rancimat oxidative stability: untreated 5.1 hours, EN 14112
Description: The oxidative stability of biodiesel is an important property thereof and is subjected to criteria which may differ from country to country. In the US, oxidative testing of biodiesel is done according to ASTM 6751-08 whereby the B100 (100% biodiesel) must pass a minimum of three hours oxidative stability as done by the Rancimat test. The European oxidation criteria is a minimum of six hours as per EN 14112. Some commercial biodiesel manufacturers and blenders require even eight hours oxidative stability to ensure that B100 biodiesel stored for prolonged periods of time will be suitable for commerce.
Use was made in this example of a pure soy-biodiesel (methyl ester of soy oil) from a commercial source having a Rancimat oxidative stability (tested in accordance with EN 14112) of 5.1 hours.

[3] = 25° C.; cited from earlier work
[4] = 450 ppm added to B100 soy-biodiesel

In the case of `CCCCCCCCN(CCO)CCO` [ODEA, octyldiethanolamine], the “solubility in anhydrous DEHA” value ([1]; 0.5 grams 4-HT into 7.5 grams anhydrous DEHA, additionally 2 grams ODEA) is reported as “completely soluble” and the Rancimat oxidative stability [2, 4] is reported as 8.3 h.

In the case of `CCCOC(=O)c1cc(O)c(O)c(O)c1` [propyl gallate], the “solubility in OAE” value ([1]; 0.5 grams 4-HT along with 1 gram propyl gallate into 15 grams OAE) is reported as “completely soluble”.

`CCCCN(CCO)CCO` [BDEA, butyldiethanolamine] gave an oxidation stability ([2]; 250 ppm added to a different sample of soy methyl ester) of 3.5 h and a Rancimat oxidative stability [2, 4] of 6.1 h.

With `CC1(C)CC(O)CC(C)(C)N1[O]` [4-HT, 4-hydroxy-2,2,6,6-tetramethylpiperidino-1-oxy] the Rancimat oxidative stability ([2]; 50 ppm added to B100 soy-biodiesel) was 5.5 h.

For `CCN(O)CC` [Diethylhydroxylamine, diethylhydroxylamine], the vapor pressure [3] is given as 32 Torr.
